Measurements as given in patent US20250367184A1, “CYP11A1 INHIBITOR FOR USE IN THE TREATMENT OF PROSTATE CANCER” (ORION CORPORATION, priority 2021, published 2025).

Key:
[1] = test system: Patients with progressive mCRPC; assay: Clinical study of compound (1A) in progressive mCRPC patients: PSA change from baseline by activating AR gene alteration status; format: in vivo, human; details: for subjects with PSA decline of ≥50% (PSA response): oral 10-150 mg daily with corticosteroids, on ADT, prior ARSi
From the text: Patients with progressive mCRPC were enrolled in the clinical trial to study the effect of a CYP11A1 inhibitor 2-(isoindolin-2-ylmethyl)-5-((1-(methylsulfonyl)-piperidin-4-yl)methoxy)-4H-pyran-4-one (1A). The patients were on ADT therapy and had previously received androgen receptor signalling inhibitor (ARSi) therapy and chemotherapy, or were ineligible for chemotherapy. Five different daily dose levels of compound (1A) with dexamethasone and fludrocortisone were given orally to 27 patients in the dose escalation/de-escalation part. Corticosteroid doses were allowed to be adjusted during the trial based on the subject's clinical condition. The daily doses were 10 mg (5 mg b.i.d), 30 mg (15 mg b.i.d.), 50 mg (25 mg b.i.d), 100 mg (50 mg b.i.d.), and 150 mg (75 mg b.i.d.). In a separate dosing evaluation part, once daily dosing of 25 mg of compound (1A), and two different glucocorticoid replacement therapies, hydrocortisone and prednisone, were evaluated in 14 patients. Subjects were allowed to continue the therapy until disease progression or intolerable toxicity. Anti-tumour activity was determined by measuring change in the PSA (prostate-specific antigen) value in PSA evaluable patient population (n=37, at least 4-week value available). A decrease in the PSA value indicates anti-tumour activity. PSA response in a patient was defined as at least 50% decline from the baseline PSA value.
(§1) Existence of activating AR-LBD somatic point mutations and AR gene amplification were analysed in plasma cfDNA samples obtained from the patients using the OncoBEAM® prostate cancer digital PCR assay panel (Sysmex Inostics, Inc.) and Guardant360 CDx (Guardant Health, Inc) assay panel. The assay panels were utilized to test the existence of activating AR-LBD point mutations including L702H, V716M, V716L, W742C, W742L, H875Y, F877L, T878A, T878S, D891Y, M896T and M896V.

[2] = test system: Patients with progressive mCRPC; assay: Clinical study of compound (1B) in progressive mCRPC patients: PSA change from baseline by activating AR gene alteration status; format: in vivo, human; details: for subjects with PSA decline of ≥50% (PSA response): oral 10-20 mg daily with corticosteroids, on ADT, prior ARSi
From the text: Patients with progressive mCRPC were enrolled in the clinical trial to study the effect of a CYP11A1 inhibitor 2-5-((1-(methylsulfonyl)piperidin-4-yl)methoxy)-2-((5-(trifluoromethyl) isoindolin-2-yl)methyl)-4/-pyran-4-one (1B). The patients were on ADT therapy and had previously received androgen receptor signalling inhibitor (ARSi) therapy and chemotherapy, or were ineligible for chemotherapy. Three different daily dose levels of compound (1B) with hydrocortisone and fludro-cortisone were given orally to 13 subjects in the dose escalation part. Corticosteroid doses were allowed to be adjusted during the trial based on the subject's clinical condition. The daily doses were 10 mg (10 mg q.d), 15 mg (15 mg q.d) and 20 mg (20 mg q.d). In a separate dosing evaluation part, twice daily dosing of 5 mg and 10 mg of compound (1B), and different glucocorticoid replacement therapy, dexamethasone, and different hydrocortisone dosing regimen were evaluated in 16 patients. Subjects were allowed to continue the therapy until disease progression or intolerable toxicity. Anti-tumour activity was determined by measuring change in the PSA (prostate-specific antigen) value. A decrease in the PSA value indicates anti-tumour activity. PSA response in a patient was defined as at least 50% decline from the baseline PSA value.
as §1, with “AR-LBD” for “AR-LBD point”

## CS(=O)(=O)N1CCC(COc2coc(CN3Cc4ccccc4C3)cc2=O)CC1 [1A, 2-(isoindolin-2-ylmethyl)-5-((1-(methylsulfonyl)piperidin-4-yl)methoxy)-4H-pyran-4-one]
[1]; 12 out of 13 PSA responders
  subjects with a PSA response (decline of ≥50%) that were activating AR gene alteration positive: 92.3%
[1]; subjects with activating AR gene alteration (12 out of 17)
  subjects with PSA decline of ≥50% (PSA response): 70.6%
[1]; subjects without an activating AR gene alteration (1 out of 20)
  subjects with PSA decline of ≥50% (PSA response): 5.0%
[1]; with alteration n=17 compared to without n=20
  anti-tumour activity (PSA change) in subjects with versus without activating AR gene alteration: substantially higher

## CS(=O)(=O)N1CCC(COc2coc(CN3Cc4ccc(C(F)(F)F)cc4C3)cc2=O)CC1 [1B, 5-((1-(methylsulfonyl)piperidin-4-yl)methoxy)-2-((5-(trifluoromethyl)isoindolin-2-yl)methyl)-4H-pyran-4-one]
[2]; 6 out of 6 PSA responders
  subjects with a PSA response (decline of ≥50%) that were activating AR gene alteration positive: 100%
[2]; subjects with activating AR gene alteration (6 out of 17)
  subjects with PSA decline of ≥50% (PSA response): 35.3%
[2]; subjects without an activating AR gene alteration (0 out of 8)
  subjects with PSA decline of ≥50% (PSA response): 0%
[2]; with alteration n=17 compared to without n=8
  anti-tumour activity (PSA change) in subjects with versus without activating AR gene alteration: substantially higher
